Entries after “also recorded” stand apart in the source; their conditions may differ.
Assays:
Assay type in all cases: physicochemical
[1] = Static storage at 40° C./75% RH, XRPD and HPLC post storage; conditions: 7 days
[2] = Heating for 24 h in a vacuum tray dryer, XRPD and HPLC; conditions: 75° C., reduced pressure
Experimental: A polymorphism study of Structure (I) was performed at 75° C., 100° C., 175° C., and 250° C. About 500 mg of Structure (I) Pattern 3 was heated at 75° C. for 24 h in a vacuum tray dryer (VTD) under reduced pressure. Obtained material after heating at 75° C. was analyzed for purity by HPLC and XPRD analysis. […] Additionally, about 500 mg of Structure (I) was heated at 75° C. for 24 h in a VTD under reduced pressure. After 24 h, material was cooled to 25-30° C. under inert atmosphere and analyzed for purity by HPLC and XRPD.
About 500 mg of Structure (I) was heated at 100° C. for 24 h in a VTD under reduced pressure. Obtained material after heating at 100° C. was analyzed for purity by HPLC and XPRD. […] Additionally, about 500 mg of Structure (I) was heated at 100° C. for 24 h in a VTD under reduced pressure. After 24 h material was cooled to 25-30° C. under inert atmosphere. Obtained material was analyzed for purity by HPLC and XPRD.
Obtained material after heating at 175° C. was analyzed for purity by HPLC and XPRD. […] After 24 h, material was cooled to 25-30° C. under inert atmosphere. Obtained material was analyzed for purity by HPLC and XPRD.
About 500 mg of Structure (I) was heated at 250° C. for 24 h in a VTD. Obtained material after heating at 250° C. was analyzed for purity by HPLC and XPRD.

XRPD under vacuum = conditions: for XRPD under vacuum: after 30 min under vacuum
Excerpt: XRPD diffractograms were collected on a PANalytical Empyrean diffractometer using Cu Kα radiation (45 kV, 40 mA, λ=1.544398 Å) in reflection geometry. The instrument was fitted with an Anton Paar CHC plus+ stage fitted with graphite/Kapton windows and equipped with air cooling coupled or a low vacuum pump system using an Edwards RV3 pump. A programmable divergence slit (in automatic mode), with a 10 mm fixed incident beam mask, Ni filter and 0.04 rad Soller slits were used on the incident beam. A PIXcel3D detector, placed on the diffracted beam, was fitted with a programmable anti-scatter slit (in automatic mode) and 0.04 rad Soller slits.
For XRPD under vacuum the samples were prepared and analyzed in an Anton Paar chromed sample holder. The sample temperature was kept constant throughout at 25° C. The measurement parameters are as per the standard screening data collection method (detailed above). An initial measurement was taken before the vacuum was initiated and then subsequently at 10 min intervals. Data collection was stopped after three consecutive scans showing no change.

[3] = Thermodynamic solubility in simulated media and buffers; conditions: listed as Structure (I) Pattern 3
[4] = Single crystal X-ray diffraction
Experimental: Crystals of Structure (I) Pattern 3 were obtained by evaporation of a THF:water 9:1 solution. A crystal of Structure (I) Pattern 3 of sufficient size and quality for analysis by single crystal X-ray diffraction was isolated from the sample with approximate dimensions 0.15×0.05×0.02 mm.
The single crystal X-ray structure of Structure (I) Pattern 3 was determined at 293(2) K and a summary of the structural data can be found in Table 41. The crystal structure of Structure (I) Pattern 3 was solved in the triclinic space group P-1 with the final R1 [I>2σ(I)]=4.36%. The structure was identified as depicted in FIG. 89 and FIG. 90 and the asymmetric unit found to contain two molecules of Structure (I).

[5] = Static storage at 25° C./97% RH, XRPD and HPLC post storage; conditions: 8 days, listed as Lot B Sample 1
[6] = Competitive slurries of Pattern 3 and Pattern 11, XRPD
Method in brief: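 Turbula-mixed 1:1 Pattern 3/Pattern 11 solid (30 mg) slurried in dried solvent (20 vol) at fridge temperature, RT or 55 °C; XRPD after 7 days, mixtures re-checked after a further 10 days. Repeats at 5 °C and 55 °C used filtered THF/water (9:1) saturated with Structure (I); XRPD after 1 and 11 days.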

XRPD post storage at 40° C./75% RH ([1]; listed as Lot B Sample 1): Unchanged by XRPD
HPLC purity change after heating at 75° C. [2]: no change
XRPD form after heating at 75° C. [2]: remained as Pattern 3
XRPD under vacuum (XRPD under vacuum; listed as Lot B): converted to Pattern 10
XRPD under vacuum (XRPD under vacuum; listed as Lot B Sample 1): Conversion to Pattern 10 after 30 min
XRPD after vacuum released (XRPD under vacuum; vacuum released for 30 min, ambient conditions, listed as Lot B Sample 1): Conversion back to Pattern 3 after
solubility in simulated fluids and buffers (in words) [3]: poor
F(000) [4]: 796
Density (calculated) ([4]; 293(2) K): 1.339 Mg/m^3
Unit cell dimensions a ([4]; 293(2) K): a = 10.1823(3) Å Å
Unit cell dimensions b ([4]; 293(2) K): b = 12.1136(4) Å Å
Unit cell dimensions c ([4]; 293(2) K): c = 16.6675(3) Å Å
Unit cell dimensions α ([4]; 293(2) K): α = 72.512(2)°
Unit cell dimensions β ([4]; 293(2) K): β = 79.465(2)°
Unit cell dimensions γ ([4]; 293(2) K): γ = 72.661(3)°
Z ([4]; 293(2) K): 4
Crystal system ([4]; 293(2) K, wavelength 1.54184 Å): Triclinic
Crystal habit ([4]; crystal from THF:Water 9:1, evaporative): Colorless lath
Volume ([4]; unit cell, 293(2) K): 1861.87(10) Å^3
Absorption coefficient ([4]; wavelength 1.54184 Å): 0.756 mm^−1
HPLC purity after storage at 25° C./97% RH (8 days) [5]: 98.5%
XRPD after storage at 25° C./97% RH (8 days) [5]: Unchanged by XRPD
form conversion in competitive slurries (in words) [6]: converted to Pattern 11
Structure (SMILES): Cc1cc(Nc2cc(N)ncn2)c(=O)n2c1C(=O)NC21CCC2(CC2)CC1 [Pattern 3]
XRPD post storage at 40° C./75% RH ([1]; listed as 9-5): remained unchanged by XRPD; also recorded: Free Form Pattern 3

Reference: US20260217712A1, “SOLID STATE FORMS OF MNK INHIBITORS” (4E Therapeutics, Inc., priority 2023, published 2026)
